Test results from article PMC4674796, “Only a minority of broad-range detoxification genes respond to a variety of phytotoxins in generalist Bemisia tabaci species” (Scientific Reports, 2015).

Each compound was assayed against T1, BtGST2 (Bemisia tabaci, UniProt A0A9P0F9D9) (assay: GSH/CDNB conjugation, absorbance at […] nm, Michaelis-Menten fit). Conditions: co-substrate GSH 2.75 mM, CDNB 0.06-3 mM; 0.1 M potassium phosphate pH 6.5, 25 °C.
T1 construct: gene BEMITA_LOCUS12014
T1 sequence (A0A9P0F9D9 1-204): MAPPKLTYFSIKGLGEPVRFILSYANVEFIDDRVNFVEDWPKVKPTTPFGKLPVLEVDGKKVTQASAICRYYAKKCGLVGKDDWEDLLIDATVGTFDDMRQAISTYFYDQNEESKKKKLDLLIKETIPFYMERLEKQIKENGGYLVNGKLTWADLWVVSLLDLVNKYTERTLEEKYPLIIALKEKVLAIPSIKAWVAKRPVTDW
Type: biochemical

| Compound | Km [µM] |
| --- | --- |
| O=[N+]([O-])c1ccc(Cl)c([N+](=O)[O-])c1 [CDNB, 1-Chloro-2,4-dinitrobenzene] | 710 ± 160 |

Each compound was assayed against T1, BtGST2 (assay: inhibition of CDNB/GSH conjugation, absorbance at […] nm). Conditions: read-out: % inhibition at 0.5 mM.
Type: biochemical

| Compound | inhibition at 500 µM [%] |
| --- | --- |
| C=CCN=C=S [AITC] | 40.9 ± 5.08 |
| O=c1cc(-c2ccccc2)oc2ccccc12 [Flavone, 2-phenyl chromone] | 67.3 ± 8.65 |
| OCc1c[nH]c2ccccc12 [I3C] | 20.9 ± 7.99 |
| CN1CCC[C@H]1c1cccnc1 [Nicotine] | 6.64 ± 3.68 |
| O=c1c(O)c(-c2ccc(O)c(O)c2)oc2cc(O)cc(O)c12 [Quercetin hydrate] | 97.6 ± 2.43 |
